Measurements from patent publication US20210300936A1, “PYRAZOLOTRIAZOLOPYRIMIDINE DERIVATIVES AS A2A RECEPTOR ANTAGONIST” (BEIGENE, LTD., priority 2018, published 2021).

What follows are compounds tested against human A2A receptor (A2AR) (Homo sapiens, UniProt P29274) (assay: Luciferase reporter assay (HEK293-A2AR-luc2p/CRE/Hygro cells, 3 nM CGS21680)). Conditions: 3 nM CGS21680, 5 h incubation.
Sequence of human A2A receptor (A2AR) (P29274 whole entry): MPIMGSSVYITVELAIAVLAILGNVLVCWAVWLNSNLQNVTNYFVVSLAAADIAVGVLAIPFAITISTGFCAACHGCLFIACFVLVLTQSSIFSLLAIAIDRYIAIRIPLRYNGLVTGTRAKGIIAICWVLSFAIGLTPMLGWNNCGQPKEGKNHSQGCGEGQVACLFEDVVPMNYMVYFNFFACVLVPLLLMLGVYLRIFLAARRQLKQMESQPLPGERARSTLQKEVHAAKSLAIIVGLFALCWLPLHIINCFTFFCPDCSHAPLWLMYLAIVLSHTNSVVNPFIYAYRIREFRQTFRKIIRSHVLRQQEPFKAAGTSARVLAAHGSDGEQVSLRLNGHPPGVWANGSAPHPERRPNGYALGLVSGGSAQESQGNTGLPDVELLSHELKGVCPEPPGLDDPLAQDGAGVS
Type: cell-based
Protocol: HEK293 cells were maintained in Dulbecco's modified Eagle's medium (DMEM, Gibco) supplemented with 10% fetal bovine serum (FBS, Thermo Scientific), 100 units/mL penicillin (Gibco), and 0.1 mg/mL streptomycin (Gibco) in a humidified 37° C. environment with 5% C02. Plasmid encoding wild-type human A2A receptor (A2AR) (in pcDNA3.1) was synthesized by Genscript (Nanjing, China). Transfection of the plasmids was performed in 6-well plates with 4×10^5 cells using Lipofectamin 2000 (ThermoFisher Scientific) according to the instruction of the manufacturer. Cell clones that stably express A2AR were established and maintained in the same complete medium as the HEK293 cells in addition of G-418 (Gibico). Expression level of A2AR in each single cell clone was determined using immunoblotting and FACS method. HEK293-A2AR stable cells were then transfected with pGL4.29[luc2P/CRE/Hygro] (Promega) luciferase reporter plasmid for establishing the HEK293-A2AR-luc2p/CRE/Hygro stable cell line.
HEK293-A2AR-luc2p/CRE/Hygro cells were seeded at a density of 5,000 cells/well in DMEM with 1% FBS and 1 U/mL adenosine deaminase (ADA) (Sigma). After 18 h, the cells were treated with 3 nM CGS21680 plus a series dilution of A2AR antagonist, the compounds disclosed herein at the concentration of 0.1˜10000 nM, prepared in DMEM with 1% FBS. After 5 h incubation, the luciferase activity in cells were measured using the Bright-Glo Luciferase Assay System (Promega) according to manufacturer's instructions. The luminescence signal was measured using a PHERAstar FS plate reader (BMG Labtech). […] Maximal luminescence intensity was determined in the presence of 3 nM CGS21680 and was set as 100%. The IC50 value was calculated from a dose dependent inhibition curve across the range of compound concentrations.
`COCCOc1ccc(N2CCN(C(=O)C(C)n3ncc4c3nc(N)n3nc(-c5ccco5)nc43)CC2)cc1` (single isomer, unassigned) [Compound A1a, 2-(5-amino-2-(furan-2-yl)-7H-pyrazolo[4,3-e][1,2,4]triazolo[1,5-c]pyrimidin-7-yl)-1-(4-(4-(2-methoxyethoxy)phenyl)piperazin-1-yl)propan-1-one] gave an IC50 of 223 nM.
For `COCCOc1ccc(N2CCN(C(=O)C(C)n3ncc4c3nc(N)n3nc(-c5ccco5)nc43)CC2)cc1` (single isomer, unassigned) [Compound A1b, 2-(5-amino-2-(furan-2-yl)-7H-pyrazolo[4,3-e][1,2,4]triazolo[1,5-c]pyrimidin-7-yl)-1-(4-(4-(2-methoxyethoxy)phenyl)piperazin-1-yl)propan-1-one], the IC50 was 40 nM.
Work on `CCCC(C(=O)N1CCN(c2ccc(OCCOCCOC)cc2)CC1)n1ncc2c1nc(N)n1nc(-c3ccco3)nc21` (single isomer, unassigned) [Compound A6b, 2-(5-amino-2-(furan-2-yl)-7H-pyrazolo[4,3-e][1,2,4]triazolo[1,5-c]pyrimidin-7-yl)-1-(4-(4-(2-(2-methoxyethoxy)ethoxy)phenyl)piperazin-1-yl)pentan-1-one] yielded an IC50 of 135 nM.
In the case of `CCCCC(C(=O)N1CCN(c2ccc(OCCOCCOC)cc2)CC1)n1ncc2c1nc(N)n1nc(-c3ccco3)nc21` (single isomer, unassigned) [Compound A11a], the IC50 is reported as 4.6 nM.
Compound `CCCCC(C(=O)N1CCN(c2ccc(OCCOCCOC)cc2)CC1)n1ncc2c1nc(N)n1nc(-c3ccco3)nc21` (single isomer, unassigned) [Compound A11b] has an IC50 of 121 nM.
For `COCCOCCOc1ccc(N2CCN(C(=O)C(CC(C)C)n3ncc4c3nc(N)n3nc(-c5ccco5)nc43)CC2)cc1` (single isomer, unassigned) [Compound A17a], the IC50 was 0.9 nM.
Compound `COCCOCCOc1ccc(N2CCN(C(=O)C(CC(C)C)n3ncc4c3nc(N)n3nc(-c5ccco5)nc43)CC2)cc1` (single isomer, unassigned) [Compound A17b] has an IC50 of 160 nM.
For `CC(C)CC(C(=O)N1CCN(c2ccc(F)cc2F)CC1)n1ncc2c1nc(N)n1nc(-c3ccco3)nc21` (single isomer, unassigned) [Compound A22a], the IC50 was 246 nM.
Compound `COCCOc1ccc(N2CCN(C(=O)C(c3ccccc3OC)n3ncc4c3nc(N)n3nc(-c5ccco5)nc43)CC2)cc1` (single isomer, unassigned) [Compound A31a] has an IC50 of 8.1 nM.
In the case of `COCCOc1ccc(N2CCN(C(=O)C(c3ccccc3OC)n3ncc4c3nc(N)n3nc(-c5ccco5)nc43)CC2)cc1` (single isomer, unassigned) [Compound A31b], the IC50 is reported as 0.1 nM.
Work on `CCCC(C(=O)N1CCN(c2ccc(OCCN(C)C)cc2)CC1)n1ncc2c1nc(N)n1nc(-c3ccco3)nc21` (single isomer, unassigned) [Compound A39a] yielded an IC50 of 127 nM.
For `COCCOc1ccc(N2CCN(C(=O)C(c3ccccc3F)n3ncc4c3nc(N)n3nc(-c5ccco5)nc43)CC2)cc1` (single isomer, unassigned) [Compound A43a], the IC50 was 16.1 nM.
Compound `COCCOc1ccc(N2CCN(C(=O)C(c3ccccc3)n3ncc4c3nc(N)n3nc(-c5ccco5)nc43)CC2)c(F)c1` (single isomer, unassigned) [Compound A44a] has an IC50 of 39.2 nM.
`COCCOc1ccc(N2CCN(C(=O)C(c3ccccc3)n3ncc4c3nc(N)n3nc(-c5ccco5)nc43)CC2)c(F)c1` (single isomer, unassigned) [Compound A44b] was tested, and the IC50 was 0.5 nM.
In the case of `COCCOc1ccc(N2CCN(C(=O)C(c3ccccc3)n3ncc4c3nc(N)n3nc(-c5ccco5)nc43)CC2C)cc1` (single isomer, unassigned) [Compound A46a], the IC50 is reported as 67.4 nM.
In the case of `COCCOc1ccc(N2CCN(C(=O)C(c3ccccc3)n3ncc4c3nc(N)n3nc(-c5ccco5)nc43)CC2C)cc1` (single isomer, unassigned) [Compound A46b], the IC50 is reported as 0.9 nM.
Work on `COCCOc1ccc(N2CCN(C(=O)C(c3ccccc3)n3ncc4c3nc(N)n3nc(-c5ccco5)nc43)CC2C)cc1` (single isomer, unassigned) [Compound A47a] yielded an IC50 of 17.3 nM.
With `COCCOc1ccc(N2CCN(C(=O)C(c3ccccc3)n3ncc4c3nc(N)n3nc(-c5ccco5)nc43)CC2C)cc1` (single isomer, unassigned) [Compound A47b] the IC50 was 0.2 nM.
With `COCCOc1ccc(N2CCN(C(=O)C(c3ccccc3)n3ncc4c3nc(N)n3nc(-c5ccco5)nc43)C(C)C2)cc1` (single isomer, unassigned) [Compound A50a] the IC50 was 88.2 nM.
In the case of `COCCOc1ccc(N2CCN(C(=O)C(c3ccccc3)n3ncc4c3nc(N)n3nc(-c5ccco5)nc43)C(C)C2)cc1` (single isomer, unassigned) [Compound A50b], the IC50 is reported as 1 nM.
With `CN(C)CCOc1ccc(N2CCN(C(=O)C(C)(c3ccccc3)n3ncc4c3nc(N)n3nc(-c5ccco5)nc43)CC2)cc1` (single isomer, unassigned) [Compound A71a] the IC50 was 10.9 nM.
With `CN(C)CCOc1ccc(N2CCN(C(=O)C(C)(c3ccccc3)n3ncc4c3nc(N)n3nc(-c5ccco5)nc43)CC2)cc1` (single isomer, unassigned) [Compound A71b] the IC50 was 4.8 nM.
With `Nc1nc2c(cnn2C(C(=O)N2CCc3ccccc3C2)c2ccccc2)c2nc(-c3ccco3)nn12` (single isomer, unassigned) [Compound B3a] the IC50 was 21.6 nM.
`Nc1nc2c(cnn2C(C(=O)N2CCc3cc(F)ccc3C2)c2ccccc2)c2nc(-c3ccco3)nn12` (single isomer, unassigned) [Compound B7a] was tested, and the IC50 was 29.1 nM.
For `Nc1nc2c(cnn2C(C(=O)N2CCc3cc(F)ccc3C2)c2ccccc2)c2nc(-c3ccco3)nn12` (single isomer, unassigned) [Compound B7b], the IC50 was 0.5 nM.
For `CCCC(C(=O)N1CCN(c2ccc(OCCOC)cc2)CC1)n1cc2c(nc(N)n3nc(-c4ccco4)nc23)n1` (single isomer, unassigned) [Compound C5a], the IC50 was 55 nM.
With `CCCC(C(=O)N1CCN(c2ccc(OCCOC)cc2)CC1)n1cc2c(nc(N)n3nc(-c4ccco4)nc23)n1` (single isomer, unassigned) [Compound C5b] the IC50 was 209 nM.
With `COCCOc1ccc(N2CCN(C(=O)C(C3CC3)n3cc4c(nc(N)n5nc(-c6ccco6)nc45)n3)CC2)cc1` (single isomer, unassigned) [Compound C16a] the IC50 was 4.1 nM.
`COCCOc1ccc(N2CCN(C(=O)C(C3CC3)n3cc4c(nc(N)n5nc(-c6ccco6)nc45)n3)CC2)cc1` (single isomer, unassigned) [Compound C16b] was tested, and the IC50 was 168 nM.
`COCCOc1ccc(N2CCN(C(=O)C(C)(c3ccccc3)n3cc4c(nc(N)n5nc(-c6ccco6)nc45)n3)CC2)cc1` (single isomer, unassigned) [Compound C25a] gave an IC50 of 79.8 nM.
Work on `COCCOc1ccc(N2CCN(C(=O)C(C)(c3ccccc3)n3cc4c(nc(N)n5nc(-c6ccco6)nc45)n3)CC2)cc1` (single isomer, unassigned) [Compound C25b] yielded an IC50 of 21.2 nM.
In the case of `COCCOc1ccc(N2CCN(C(=O)C(C)n3ncc4c3nc(N)n3nc(-c5ccco5)nc43)CC2)cc1` (stereo not shown) [Compound A1, 2-(5-amino-2-(furan-2-yl)-7H-pyrazolo[4,3-e][1,2,4]triazolo[1,5-c]pyrimidin-7-yl)-1-(4-(4-(2-methoxyethoxy)phenyl)piperazin-1-yl)propan-1-one], the IC50 is reported as 42.9 nM.
Compound `COCCOc1ccc(N2CCN(C(=O)C(C(C)C)n3ncc4c3nc(N)n3nc(-c5ccco5)nc43)CC2)cc1` (stereo not shown) [Compound A2, 2-(5-amino-2-(furan-2-yl)-7H-pyrazolo[4,3-e][1,2,4]Triazolo[1,5-c]pyrimidin-7-yl)-1-(4-(4-(2-methoxyethoxy)phenyl)piperazin-1-yl)-3-methylbutan-1-one] has an IC50 of 96.9 nM.
`COCCOc1ccc(N2CCN(C(=O)C(C)(C)n3ncc4c3nc(N)n3nc(-c5ccco5)nc43)CC2)cc1` [Compound A3, 2-(5-amino-2-(furan-2-yl)-7H-pyrazolo[4,3-e][1,2,4]triazolo[1,5-c]pyrimidin-7-yl)-1-(4-(4-(2-methoxyethoxy)phenyl)piperazin-1-yl)-2-methylpropan-1-one] gave an IC50 of 362 nM.
In the case of `CCC(C(=O)N1CCN(c2ccc(OCCOC)cc2)CC1)n1ncc2c1nc(N)n1nc(-c3ccco3)nc21` (stereo not shown) [Compound A4, 2-(5-amino-2-(furan-2-yl)-7H-pyrazolo[4,3-e][1,2,4]triazolo[1,5-c]pyrimidin-7-yl)-1-(4-(4-(2-methoxyethoxy)phenyl)piperazin-1-yl)butan-1-one], the IC50 is reported as 43.5 nM.
Compound `CCCC(C(=O)N1CCN(c2ccc(OCCOC)cc2)CC1)n1ncc2c1nc(N)n1nc(-c3ccco3)nc21` (stereo not shown) [Compound A5, 2-(5-amino-2-(furan-2-yl)-7H-pyrazolo[4,3-e][1,2,4]triazolo[1,5-c]pyrimidin-7-yl)-1-(4-(4-(2-methoxyethoxy)phenyl)piperazin-1-yl)pentan-1-one] has an IC50 of 9.1 nM.
`CCCC(C(=O)N1CCN(c2ccc(OCCOCCOC)cc2)CC1)n1ncc2c1nc(N)n1nc(-c3ccco3)nc21` (stereo not shown) [Compound A6, 2-(5-amino-2-(furan-2-yl)-7H-pyrazolo[4,3-e][1,2,4]triazolo[1,5-c]pyrimidin-7-yl)-1-(4-(4-(2-(2-methoxyethoxy)ethoxy)phenyl)piperazin-1-yl)pentan-1-one] showed an IC50 of 9.5 nM.
